In patent US20040186066A1, “Method of treatment with nelfinavir” (AGOURON PHARMACEUTICALS, INC., priority 2003, published 2004):
Where a name gives a salt, the structure may show the parent alone. Read-outs that look alike come from different tables or passages of the source.

Assays:
[1] = Example 2: phase 1 crossover 3×3 study, fixed kilocalorie meal at 20% and 50% fat, single-dose pharmacokinetics of nelfinavir 250 mg tablets; type: in vivo, human (normal, healthy volunteers); settings: for AUC / AUC(0-inf) / Cmax / AUC(0-t) / half-life / Tmax: human, plasma, oral, 1250 mg; for AUC: read-out: Nelfinavir AUC24; for AUC(0-t): read-out: AUC(0-tlqc), least-squares mean
Procedure: A study was conducted as a phase 1, randomized, open-label, crossover 3×3 study, designed to evaluate the impact of a fixed kilocalorie meal at 20% and 50% fat content on single-dose pharmacokinetic parameters of the nelfinavir 250 mg tablet formulation in normal, healthy volunteers. Subjects were dosed with 1250 mg of nelfinavir 3 times at one-week intervals and 24-hour PK profiles were collected following each of the doses. Each subject was assigned three meals with different fat contents prior to dosing (fasting, 500kcal with 20% fat, 500 kcal with 50% fat) using a Latin square design. Twenty-four subjects entered the study and twenty-two subjects completed it. Each subject received the following treatment in random order on Days 1, 8 and 15: 5×250 mg nelfinavir tablets with fasting; 5×250 mg nelfinavir tablets, with a meal comprising 500Kcal/20% fat; and 5×250 mg nelfinavir tablets with a meal having 500 Kcal/50% fat. The moderate calorie/low fat meal consisted of 500 Kcal with 20% fat (11.3 grams of fat). The moderate calorie/high fat meal consisted of 500 Kcal with 50% fat (27.8 grams of fat). Subjects were administered nelfinavir 1250-mg (five 250-mg tablets) on the morning of the pharmacokinetic evaluations. The nelfinavir terminal half-life (t½) in plasma is typically 3.5 to 5 hours. […] Subjects participated on an outpatient basis; however, subjects were admitted to the in-patient facility the evening prior to each PK evaluation and remained in the in-patient facility for approximately 16 hours post-dosing. The subjects returned the next morning (8 hours later) for their last 24 hr. pharmacokinetic blood draw. All pharmacokinetic evaluations were performed in the in-patient facility. Blood samples were collected and analyzed for plasma concentrations of nelfinavir and M8. For the fasting evaluation, subjects were required to complete an overnight fast of at least 10 hours prior to dosing in the morning. For the fed PK evaluations, subjects were required to complete an overnight fast of at least 10 hours, prior to receiving the protocol-specific standardized breakfast meal. Subjects were given 30 minutes to complete their standardized breakfast meal. Dosing was performed in the morning, immediately following the subject's completion of the standardized breakfast meal and after the subject's predose PK specimen had been collected. Subjects could not ingest water 1 hour prior to or 1 hour after dosing. A standardized lunch was given at least 4 hours after the morning dose and a standardized dinner was given at least 10 hours after the morning dose. Actual sampling times were used for all data evaluation. Mean Cmax and AUC values were calculated as the antilogs of least-squares mean log-transformed values (analogous to geometric means). Ratios and confidence intervals for Cmax and AUC values are also based on log-transformed values. Mean values for all other pharmacokinetic parameters are least-squares means. Ratios and confidence intervals for these parameters are based on untransformed values. Blood samples, 5 mL each, were collected as in Example 1. The timing of each sample collection was as follows: Predose and at 0.5, 1, 2, 3, 4, 6, 8, 12, 16 and 24 hours postdose on Days 1, 8, and 15. All blood samples were kept at […] (using either wet ice or cryoblock) until centrifugation. Blood samples were centrifuged within 1 hour of collection, at 3000 rpm (approximately 2619×g) for 15 minutes, to separate the plasma. The plasma samples were split evenly into 2 aliquots and stored in appropriately labeled polypropylene transport tubes. Plasma was stored frozen at […] or lower until analysis. Pharmacokinetic parameter values were calculated from plasma nelfinavir and M8 concentration-time data using standard noncompartmental pharmacokinetic methods as in Example 1. Plasma concentrations of nelfinavir and M8 were measured by validated high-performance liquid chromatography (HPLC) methods. […]

[2] = cited from earlier work
[3] = light breakfast 350 kcal/13 g fat vs standard breakfast 800 kcal/35 g fat; cited from earlier work
[4] = nelfinavir and nelfinavir plus M8; full breakfast 610 kcal vs light breakfast 271 kcal; once-daily with low-dose ritonavir; cited from earlier work
[5] = single dose; cited from earlier work
[6] = meals 517 to 759 Kcal, 153 to 313 Kcal from fat; cited from earlier work
[7] = Kcal/Fat % 500/20% relative to fasting
[8] = Kcal/Fat % 500/50% relative to fasting
[9] = nelfinavir, moderate calorie/high fat meal (500 Kcal/50% fat) vs fasting
[10] = nelfinavir, moderate calorie/low fat meal (500 Kcal/20% fat) vs fasting

Cc1c(O)cccc1C(=O)N[C@@H](CSc1ccccc1)[C@H](O)CN1C[C@H]2CCCC[C@H]2C[C@H]1C(=O)NC(C)(C)C (relative stereo) [nelfinavir, [3S-(3R*, 4aR*, 8aR*, 2′S*, 3′S*)]-2-[2′ hydroxy-3′-phenylthiomethyl-4′-aza-5′-oxo-5′-(2″-methyl-3″-hydroxy-phenyl)pentyl]-decahydroiso-quinoline-3-N-t-butylcarboxamide methanesulfonic acid salt]
Nelfinavir AUC24 (×fasting) [1, 7]: 3.2 X | Nelfinavir AUC∞ (×fasting) [1, 7]: 3.0 X | Nelfinavir Cmax (×fasting) [1, 7]: 2.5 X | Nelfinavir AUC24 (×fasting) [1, 8]: 5.2 X | Nelfinavir AUC∞ (×fasting) [1, 8]: 5.1 X | Nelfinavir Cmax (×fasting) [1, 8]: 3.8 X | AUC ([1]; 1250 mg single dose, fasting): 10000 ng·h/mL | AUC(0-inf) ([1]; 1250 mg single dose, fasting, read-out: Nelfinavir AUC∞): 10700 ng·h/mL | Cmax ([1]; 1250 mg single dose, fasting, read-out: Nelfinavir Cmax): 1630 ng/mL | AUC ([1]; Kcal/Fat % 500/20%): 32600 ng·h/mL | AUC(0-inf) ([1]; Kcal/Fat % 500/20%, read-out: Nelfinavir AUC∞): 32700 ng·h/mL | Cmax ([1]; Kcal/Fat % 500/20%, read-out: Nelfinavir Cmax): 4000 ng/mL | AUC ([1]; Kcal/Fat % 500/50%): 52600 ng·h/mL | AUC(0-inf) ([1]; Kcal/Fat % 500/50%, read-out: Nelfinavir AUC∞): 54600 ng·h/mL | Cmax ([1]; Kcal/Fat % 500/50%, read-out: Nelfinavir Cmax): 6200 ng/mL | AUC(0-t) ([1]; nelfinavir, 5×250-mg tablets during moderate calorie/high fat meal (500 Kcal/50% fat)): 52600 ng·h/mL | AUC(0-inf) ([1]; nelfinavir, 5×250-mg tablets during moderate calorie/high fat meal (500 Kcal/50% fat), read-out: AUC(0-∞), least-squares mean): 54600 ng·h/mL | Cmax ([1]; nelfinavir, 5×250-mg tablets during moderate calorie/high fat meal (500 Kcal/50% fat), read-out: Cmax, least-squares mean): 6160 ng/mL | half-life ([1]; nelfinavir, 5×250-mg tablets during moderate calorie/high fat meal (500 Kcal/50% fat), read-out: t1/2 (terminal half-life), least-squares mean (converted)): 3.43 h | Tmax ([1]; nelfinavir, 5×250-mg tablets during moderate calorie/high fat meal (500 Kcal/50% fat), read-out: tmax, least-squares mean): 4.48 h | AUC(0-t) ([1]; nelfinavir, 5×250-mg tablets during moderate calorie/low fat meal (500 Kcal/20% fat)): 32600 ng·h/mL | AUC(0-inf) ([1]; nelfinavir, 5×250-mg tablets during moderate calorie/low fat meal (500 Kcal/20% fat), read-out: AUC(0-∞), least-squares mean): 32700 ng·h/mL | Cmax ([1]; nelfinavir, 5×250-mg tablets during moderate calorie/low fat meal (500 Kcal/20% fat), read-out: Cmax, least-squares mean): 4040 ng/mL | half-life ([1]; nelfinavir, 5×250-mg tablets during moderate calorie/low fat meal (500 Kcal/20% fat), read-out: t1/2 (terminal half-life), least-squares mean (converted)): 3.08 h | Tmax ([1]; nelfinavir, 5×250-mg tablets during moderate calorie/low fat meal (500 Kcal/20% fat), read-out: tmax, least-squares mean): 4.19 h | AUC(0-t) ([1]; nelfinavir, 5×250-mg tablets single dose, fasting (reference)): 10000 ng·h/mL | AUC(0-inf) ([1]; nelfinavir, 5×250-mg tablets single dose, fasting (reference), read-out: AUC(0-∞), least-squares mean): 10700 ng·h/mL | Cmax ([1]; nelfinavir, 5×250-mg tablets single dose, fasting (reference), read-out: Cmax, least-squares mean): 1630 ng/mL | half-life ([1]; nelfinavir, 5×250-mg tablets single dose, fasting (reference), read-out: t1/2 (terminal half-life), least-squares mean (converted)): 4.1 h | Tmax ([1]; nelfinavir, 5×250-mg tablets single dose, fasting (reference), read-out: tmax, least-squares mean): 2.42 h | half-life ([1]; nelfinavir, fasting subjects and test meals, similar, read-out: elimination t½, average (converted)): ~4 h | Tmax ([1]; nelfinavir, meal of 20% fat content (500 kcal), read-out: mean tmax longer relative to fasting subjects): ~2 h | Tmax ([1]; nelfinavir, meal of 50% fat content (500 kcal), read-out: mean tmax longer relative to fasting subjects): ~2 h | AUC increase compared to the fasting AUC ([1]; nelfinavir, 500 Kcal, 50% fat breakfast): 5.2 fold | AUC increase compared to the fasting AUC ([1]; nelfinavir, 500 kcal, 20% fat breakfast): 3.2 fold | % coefficient of variation (CV) for AUC(0-∞) ([1]; nelfinavir, fasting subjects): 75% | bioavailability higher relative to fasting subjects, based on AUC(0-∞) ([1]; nelfinavir, meal containing 20% fat (500 kcal)): approximately 3 fold | bioavailability higher relative to fasting subjects, based on AUC(0-∞) ([1]; nelfinavir, meal containing 50% fat (500 kcal)): ~5 fold | mean Cmax higher relative to fasting ([1]; nelfinavir, meal of 20% fat content (500 kcal)): approximately 2.5 fold | mean Cmax higher relative to fasting ([1]; nelfinavir, meal of 50% fat content (500 kcal)): ~3.8 fold | AUC(0-tlqc) ratio (100% × test/reference) [1, 9]: 524% | AUC(0-∞) ratio (100% × test/reference) [1, 9]: 508% | Cmax ratio (100% × test/reference) [1, 9]: 378% | t1/2 ratio (100% × test/reference) [1, 9]: 83.7% | tmax ratio (100% × test/reference) [1, 9]: 186% | AUC(0-tlqc) ratio (100% × test/reference) [1, 10]: 325% | AUC(0-∞) ratio (100% × test/reference) [1, 10]: 305% | Cmax ratio (100% × test/reference) [1, 10]: 248% | t1/2 ratio (100% × test/reference) [1, 10]: 75.0% | tmax ratio (100% × test/reference) [1, 10]: 173% | % coefficient of variation (CV) for AUC(0-∞) ([1]; nelfinavir, test meal containing 20% fat): 48% | % coefficient of variation (CV) for AUC(0-∞) ([1]; nelfinavir, test meal containing 50% fat): 43% | oral bioavailability ([2]; animals fasted overnight): 29% | oral bioavailability ([2]; fed rats, dogs and monkeys (meal 30 minutes before drug administration)): 43% | AUC0-12h less with light breakfast than with standard breakfast [3]: 13% | effect of the two breakfasts on C1-hour post dose, Cmax and C12-hours [3]: No significant effects | effect of meal consumption on AUC24h, corr and Cmin [4]: significant effect | AUC under fasting conditions as % of AUC with food [5]: 27-50% | AUC, fed compared to fasting [6]: two to three-fold higher | maximum plasma concentrations, fed compared to fasting [6]: two to three-fold higher
